The record followed here is publication PMC5468247, “Development of a selective agonist for relaxin family peptide receptor 3” (Scientific Reports, 2017).

Assay [1] concerns the target T1, human RXFP4 (Homo sapiens, UniProt Q8TDU9).
T1 construct: expressed in transfected cells; host or cells: HEK293T
Description: Receptor binding assay, NanoLuc-conjugated R3/I5 tracer competition. As to conditions: compared with R3/I5. The protocol:
(§1) Specific binding data are expressed as means ± SE (n = 3) and fitted to sigmoidal curves using SigmaPlot 10.0 software.
(§2) Briefly, HEK293T cells were transiently transfected with an expression construct of human RXFP3 or human RXFP4. On the next day, transfected cells were trypsinised, seeded into 96-well plates, and continuously cultured for 24–36 h to ~100% confluence. […] After incubation at 21 °C for 2 h, binding solution was removed and cells were washed twice with ice-cold phosphate-buffered saline (200 μl/well for each wash). Thereafter, cells were lysed by lysis solution (100 μl/well, Promega, Madison, WI, USA) and cell lysates were transferred to a white opaque 96-well plate (50 μl/well). After mixing with freshly diluted substrate (50 μl/well), bioluminescence was immediately measured on a SpectraMax M5 plate reader (Molecular Devices, Sunnyvale, CA, USA) in luminescence mode. […] The calculated specific binding data were expressed as means ± standard error (SE; n = 3) and fitted to sigmoidal curves using SigmaPlot 10.0 software.

Assay [2] has as its target T2, human RXFP3 (Homo sapiens, UniProt Q9NSD7).
T2 construct: expressed in transfected cells; host or cells: HEK293T
T2 sequence (Q9NSD7 1-469): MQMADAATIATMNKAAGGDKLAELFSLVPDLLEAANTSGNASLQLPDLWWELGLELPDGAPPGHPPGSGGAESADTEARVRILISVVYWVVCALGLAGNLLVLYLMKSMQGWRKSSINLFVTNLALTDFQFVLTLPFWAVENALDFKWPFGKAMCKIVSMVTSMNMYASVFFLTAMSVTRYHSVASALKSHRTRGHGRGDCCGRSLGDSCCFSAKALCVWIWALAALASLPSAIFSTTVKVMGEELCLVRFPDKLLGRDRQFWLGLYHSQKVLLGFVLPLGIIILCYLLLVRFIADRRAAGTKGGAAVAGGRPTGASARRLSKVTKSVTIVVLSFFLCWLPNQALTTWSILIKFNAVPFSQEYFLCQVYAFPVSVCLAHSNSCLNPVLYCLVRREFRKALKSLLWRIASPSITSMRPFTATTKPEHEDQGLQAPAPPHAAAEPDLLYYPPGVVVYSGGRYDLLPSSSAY
The description is as above. As to conditions: for binding potency towards RXFP3, in words: compared with R3/I5. The protocol: as §1, §2

In assay [3] the target is T1, human RXFP4. Description: Receptor activation assay, CRE-controlled NanoLuc reporter. The assay is classed as cell-based. An excerpt:
(§3) HEK293T cells transiently cotransfected with a CRE-controlled NanoLuc reporter vector and the expression construct of human RXFP3 or human RXFP4 were used for activation assays. The measured bioluminescence data are expressed as means ± SE (n = 3) and fitted to sigmoidal or linear curves using SigmaPlot 10.0.
(§4) Briefly, HEK293T cells were transiently cotransfected with the NanoLuc reporter vector pNL1.2/CRE and the expression construct of human RXFP3 or human RXFP4. On the next day, transfected cells were trypsinised, seeded into 96-well plates, and continuously cultured for 24–36 h to ~90% confluence. To initiate activation assays, medium was removed and activation solution (serum-free DMEM medium plus 1% bovine serum albumin) containing 1.0 μM of forskolin and various concentrations of peptide was added (100 μl/well). After continuous culturing at 37 °C for 4 h, activation solution was removed and cells were lysed with lysis solution (100 μl/well, Promega). Cell lysates were then transferred to a white opaque 96-well plate (50 μl/well), mixed with freshly diluted substrate (50 μl/well), and bioluminescence was immediately measured on a SpectraMax M5 plate reader (Molecular Devices) in luminescence mode. The measured data were expressed as means ± SE (n = 3) and fitted to sigmoidal or linear curves using SigmaPlot 10.0 software.

In assay [4] the target is T2, human RXFP3. The description is as above. The assay is classed as cell-based. As to conditions: for activation potency towards RXFP3, in words / fold lower activation potency towards RXFP3 compared with R3/I5: CRE-NanoLuc reporter, human RXFP3; for activation potency towards RXFP3, in words: compared with R3/I5; for fold lower activation potency towards RXFP3 compared with R3/I5: relative to R3/I5; for fold higher activation potency towards RXFP3 than towards RXFP4: selectivity RXFP3 over RXFP4, from activation assays.
Text: as §3, §4

T1 sequence (Q8TDU9 whole entry): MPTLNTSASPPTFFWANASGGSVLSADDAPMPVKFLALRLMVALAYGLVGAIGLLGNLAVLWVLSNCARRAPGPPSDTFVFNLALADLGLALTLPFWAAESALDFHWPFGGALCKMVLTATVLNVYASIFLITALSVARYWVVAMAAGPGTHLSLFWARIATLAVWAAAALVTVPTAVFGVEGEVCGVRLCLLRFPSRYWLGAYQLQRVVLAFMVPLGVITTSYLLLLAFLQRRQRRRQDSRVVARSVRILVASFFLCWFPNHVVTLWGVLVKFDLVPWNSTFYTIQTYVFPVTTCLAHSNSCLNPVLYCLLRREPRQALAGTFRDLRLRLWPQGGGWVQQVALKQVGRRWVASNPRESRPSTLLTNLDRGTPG

In the case of `CC[C@H](C)[C@@H]1NC(=O)[C@H](Cc2ccccc2)NC(=O)[C@H](CCC(=O)O)NC(=O)[C@H](CCCNC(=N)N)NC(=O)CNC(=O)[C@@H](NC(=O)[C@H](CC(C)C)NC(=O)[C@H](CCCNC(=N)N)NC(=O)[C@@H](NC(=O)CNC(=O)[C@H](Cc2ccc(O)cc2)NC(=O)[C@@H]2CCCN2C(=O)[C@H](C)NC(=O)[C@H](C)NC(=O)[C@H](CCCNC(=N)N)NC(=O)[C@@H]2CCC(=O)N2)C(C)C)CSSC[C@@H]2NC(=O)[C@@H](NC(=O)[C@H](CC(C)C)NC(=O)[C@@H](NC(=O)[C@H](CCC(N)=O)NC(=O)[C@H](CC(C)C)NC(=O)[C@H](CC(=O)O)NC(=O)[C@H](CCC(N)=O)NC(=O)[C@H](CCCNC(=N)N)NC(=O)[C@H](CO)NC(=O)[C@H](CCCNC(=N)N)NC(=O)[C@H](CCCNC(=N)N)NC(=O)[C@H](CO)NC(=O)[C@@H](N)CCCNC(=N)N)[C@@H](C)O)CSSC[C@H](NC(=O)CNC(=O)[C@H](CC(=O)O)NC(=O)[C@H]([C@@H](C)O)NC2=O)C(=O)N[C@@H](CO)C(=O)N[C@@H](CCSC)C(=O)N[C@@H]([C@@H](C)O)C(=O)N[C@@H](CC(=O)O)C(=O)N[C@@H](CC(C)C)C(=O)N[C@@H](CO)C(=O)N[C@@H](C)C(=O)N[C@@H](CC(C)C)C(=O)N[C@H](C(=O)O)CSSC[C@@H](C(=O)NCC(=O)N[C@@H](C)C(=O)N[C@@H](CO)C(=O)N[C@@H](CCCNC(=N)N)C(=O)N[C@@H](Cc2c[nH]c3ccccc23)C(=O)O)NC(=O)[C@H]([C@@H](C)O)NC(=O)[C@H](Cc2ccccc2)NC(=O)[C@H]([C@@H](C)CC)NC(=O)[C@H](C(C)C)NC(=O)[C@H](C)NC(=O)[C@H](CCCNC(=N)N)NC1=O` [[G(B24)A]R3/I5], the “binding potency towards RXFP4, in words” value on human RXFP4 [1] is recorded as “retained full binding potency”. In addition, the “binding potency towards RXFP3, in words” value at human RXFP3 [2] was “retained full binding potency”. In addition, on human RXFP4 [3] (compared with R3/I5), the “activation potency towards RXFP4, in words” value is on record as “retained full activation potency”. Also, the “activation potency towards RXFP3, in words” value at human RXFP3 [4] is given as “retained full activation potency”.
For `CC[C@H](C)[C@@H]1NC(=O)[C@H](Cc2ccccc2)NC(=O)[C@H](CCC(=O)O)NC(=O)[C@H](CCCNC(=N)N)NC(=O)CNC(=O)[C@@H](NC(=O)[C@H](CC(C)C)NC(=O)[C@H](CCCNC(=N)N)NC(=O)[C@@H](NC(=O)CNC(=O)[C@H](Cc2ccc(O)cc2)NC(=O)[C@@H]2CCCN2C(=O)[C@H](C)NC(=O)[C@H](C)NC(=O)[C@H](CCCNC(=N)N)NC(=O)[C@@H]2CCC(=O)N2)C(C)C)CSSC[C@@H]2NC(=O)[C@@H](NC(=O)[C@H](CC(C)C)NC(=O)[C@@H](NC(=O)[C@H](CCC(N)=O)NC(=O)[C@H](CC(C)C)NC(=O)[C@H](CC(=O)O)NC(=O)[C@H](CCC(N)=O)NC(=O)[C@H](CCCNC(=N)N)NC(=O)[C@H](CO)NC(=O)[C@H](CCCNC(=N)N)NC(=O)[C@H](CCCNC(=N)N)NC(=O)[C@H](CO)NC(=O)[C@@H](N)CCCNC(=N)N)[C@@H](C)O)CSSC[C@H](NC(=O)CNC(=O)[C@H](CC(=O)O)NC(=O)[C@H]([C@@H](C)O)NC2=O)C(=O)N[C@@H](CO)C(=O)N[C@@H](CCSC)C(=O)N[C@@H]([C@@H](C)O)C(=O)N[C@@H](CC(=O)O)C(=O)N[C@@H](CC(C)C)C(=O)N[C@@H](CO)C(=O)N[C@@H](C)C(=O)N[C@@H](CC(C)C)C(=O)N[C@H](C(=O)O)CSSC[C@@H](C(=O)NCC(=O)N[C@H](C(=O)N[C@@H](CO)C(=O)N[C@@H](CCCNC(=N)N)C(=O)N[C@@H](Cc2c[nH]c3ccccc23)C(=O)O)C(C)C)NC(=O)[C@H]([C@@H](C)O)NC(=O)[C@H](Cc2ccccc2)NC(=O)[C@H]([C@@H](C)CC)NC(=O)[C@H](C(C)C)NC(=O)[C@H](C)NC(=O)[C@H](CCCNC(=N)N)NC1=O` [[G(B24)V]R3/I5], at human RXFP3 [2] (relative to R3/I5), the “fold lower binding potency for RXFP3 compared with R3/I5” value is ~ 5 fold. Moreover, at human RXFP3 [4], the “fold lower activation potency towards RXFP3 compared with R3/I5” value is on record as ~ 10 fold and the “fold higher activation potency towards RXFP3 than towards RXFP4” value is given as ~ 10 fold.
As for `CC[C@H](C)[C@@H]1NC(=O)[C@H](Cc2ccccc2)NC(=O)[C@H](CCC(=O)O)NC(=O)[C@H](CCCNC(=N)N)NC(=O)CNC(=O)[C@@H](NC(=O)[C@H](CC(C)C)NC(=O)[C@H](CCCNC(=N)N)NC(=O)[C@@H](NC(=O)CNC(=O)[C@H](Cc2ccc(O)cc2)NC(=O)[C@@H]2CCCN2C(=O)[C@H](C)NC(=O)[C@H](C)NC(=O)[C@H](CCCNC(=N)N)NC(=O)[C@@H]2CCC(=O)N2)C(C)C)CSSC[C@@H]2NC(=O)[C@@H](NC(=O)[C@H](CC(C)C)NC(=O)[C@@H](NC(=O)[C@H](CCC(N)=O)NC(=O)[C@H](CC(C)C)NC(=O)[C@H](CC(=O)O)NC(=O)[C@H](CCC(N)=O)NC(=O)[C@H](CCCNC(=N)N)NC(=O)[C@H](CO)NC(=O)[C@H](CCCNC(=N)N)NC(=O)[C@H](CCCNC(=N)N)NC(=O)[C@H](CO)NC(=O)[C@@H](N)CCCNC(=N)N)[C@@H](C)O)CSSC[C@H](NC(=O)CNC(=O)[C@H](CC(=O)O)NC(=O)[C@H]([C@@H](C)O)NC2=O)C(=O)N[C@@H](CO)C(=O)N[C@@H](CCSC)C(=O)N[C@@H]([C@@H](C)O)C(=O)N[C@@H](CC(=O)O)C(=O)N[C@@H](CC(C)C)C(=O)N[C@@H](CO)C(=O)N[C@@H](C)C(=O)N[C@@H](CC(C)C)C(=O)N[C@H](C(=O)O)CSSC[C@@H](C(=O)NCC(=O)N[C@H](C(=O)N[C@@H](CO)C(=O)N[C@@H](CCCNC(=N)N)C(=O)N[C@@H](Cc2c[nH]c3ccccc23)C(=O)O)[C@@H](C)O)NC(=O)[C@H]([C@@H](C)O)NC(=O)[C@H](Cc2ccccc2)NC(=O)[C@H]([C@@H](C)CC)NC(=O)[C@H](C(C)C)NC(=O)[C@H](C)NC(=O)[C@H](CCCNC(=N)N)NC1=O` [[G(B24)T]R3/I5], on human RXFP3 [4], the “fold lower activation potency towards RXFP3 compared with R3/I5” value is on record as ~ 20 fold and the “fold higher activation potency towards RXFP3 than towards RXFP4” value is listed as ~ 2 fold.
Regarding `CC[C@H](C)[C@@H]1NC(=O)[C@H](Cc2ccccc2)NC(=O)[C@H](CCC(=O)O)NC(=O)[C@H](CCCNC(=N)N)NC(=O)CNC(=O)[C@@H](NC(=O)[C@H](CC(C)C)NC(=O)[C@H](CCCNC(=N)N)NC(=O)[C@@H](NC(=O)CNC(=O)[C@H](Cc2ccc(O)cc2)NC(=O)[C@@H]2CCCN2C(=O)[C@H](C)NC(=O)[C@H](C)NC(=O)[C@H](CCCNC(=N)N)NC(=O)[C@@H]2CCC(=O)N2)C(C)C)CSSC[C@@H]2NC(=O)[C@@H](NC(=O)[C@H](CC(C)C)NC(=O)[C@@H](NC(=O)[C@H](CCC(N)=O)NC(=O)[C@H](CC(C)C)NC(=O)[C@H](CC(=O)O)NC(=O)[C@H](CCC(N)=O)NC(=O)[C@H](CCCNC(=N)N)NC(=O)[C@H](CO)NC(=O)[C@H](CCCNC(=N)N)NC(=O)[C@H](CCCNC(=N)N)NC(=O)[C@H](CO)NC(=O)[C@@H](N)CCCNC(=N)N)[C@@H](C)O)CSSC[C@H](NC(=O)CNC(=O)[C@H](CC(=O)O)NC(=O)[C@H]([C@@H](C)O)NC2=O)C(=O)N[C@@H](CO)C(=O)N[C@@H](CCSC)C(=O)N[C@@H]([C@@H](C)O)C(=O)N[C@@H](CC(=O)O)C(=O)N[C@@H](CC(C)C)C(=O)N[C@@H](CO)C(=O)N[C@@H](C)C(=O)N[C@@H](CC(C)C)C(=O)N[C@H](C(=O)O)CSSC[C@@H](C(=O)N[C@@H](C)C(=O)NCC(=O)N[C@@H](CO)C(=O)N[C@@H](CCCNC(=N)N)C(=O)N[C@@H](Cc2c[nH]c3ccccc23)C(=O)O)NC(=O)[C@H]([C@@H](C)O)NC(=O)[C@H](Cc2ccccc2)NC(=O)[C@H]([C@@H](C)CC)NC(=O)[C@H](C(C)C)NC(=O)[C@H](C)NC(=O)[C@H](CCCNC(=N)N)NC1=O` [[G(B23)A]R3/I5], the “binding potency towards RXFP4, in words” value at human RXFP4 [1] is reported as “retained high binding potency”. In addition, the “binding potency towards RXFP3, in words” value on human RXFP3 [2] is “retained considerable binding potency”. On human RXFP4 [3] (relative to R3/I5), the “fold lower activation potency towards RXFP4 compared with R3/I5” value is on record as ~ 100 fold. For the same compound, on human RXFP3 [4], the “activation potency towards RXFP3, in words” value is “lost all activation potency”.
